Experimental data from publication PMC9883826 (Scientific Reports, 2023).
≈ marks a conversion by molar mass, not a printed value. Entries after “also recorded” stand apart in the source; their conditions may differ. Counter-ions that a name gives are not always drawn. Like-named read-outs stand apart in the source and are kept apart here.

Key:
[1] = test system: influenza A/chicken/Egypt/N12640A/2016(H5N1); test: microbe, parasite or virus in culture; type: cell-based, influenza A virus
[2] = test system: influenza A/Egypt/NRC098/2019(H1N1); test: microbe, parasite or virus in culture; type: cell-based, influenza A virus; details: for IC50: Influenza A virus, H1N1, MDCK
in vitro = details: dog
influenza A/H5N1 virus [3] = test: microbe, parasite or virus in culture; type: cell-based
influenza A/H5N1 virus [4] = test: microbe, parasite or virus in culture; type: cell-based; details: H5N1, read-out: Viral inhibition (%) Mean
influenza A/H1N1 virus = test: microbe, parasite or virus in culture; type: cell-based; details: H1N1, read-out: Viral inhibition (%) Mean
HSV-2 [5] = details: cited from earlier work
influenza A/H5N1 virus [6] = test: microbe, parasite or virus in culture; type: cell-based; remark: listed apart in the source
HSV-1 = details: cited from earlier work
influenza A/H5N1 virus [7] = test: microbe, parasite or virus in culture; type: cell-based; remark: listed apart in the source
HSV-2 [8] = details: cited from earlier work; remark: listed apart in the source
MDCK cells = details: dog
DENV-2 (dengue virus-2) = details: cited from earlier work
[9] = test system: severe acute respiratory syndrome coronavirus (SARS-CoV); details: cited from earlier work
[10] = in vivo; cited from earlier work
[11] = Influenza A virus, H5N1, MDCK, 72 h
[12] = Influenza A virus, H5N1, read-out: Viricidal (%) viral inhibition
[13] = Influenza A virus, H5N1, MDCK, read-out: PIC50 H5N1
[14] = Influenza A virus, H5N1, read-out: Viral replication (%) viral inhibition
[15] = Influenza A virus, H5N1, read-out: Viral adsorption (%) viral inhibition

CC(=O)N[C@H]1[C@H]([C@H](O)[C@H](O)CO)OC(C(=O)O)=C[C@@H]1N=C(N)N [Zanamivir, reference compound]
Selectivity index (SI) [1]: > 1.26*10^5
IC50 [1, 11]: 0.079 µg/mL
Selectivity index (SI) [2]: > 3.4*10^4
IC50 ([2]; 72 h): 0.291 µg/mL
CC50 (in vitro): > 10000 µg/mL

Cc1nccc2c1[nH]c1ccccc12 [Harmane]
inhibition at 10 µg/mL (influenza A/H5N1 virus [3]; [12]): 31.8%
inhibition at 100 µg/mL (influenza A/H5N1 virus [3]; [12]): 41.8%
inhibition at 1000 µg/mL (influenza A/H5N1 virus [3]; [12]): 82.1%
IC50 [1, 11]: 0.023 µg/mL
IC50 [1, 13]: 23 nM
inhibition at 10 µg/mL (influenza A/H5N1 virus [4]): 65.5%
inhibition at 100 µg/mL (influenza A/H5N1 virus [4]): 74.4%
inhibition at 1000 µg/mL (influenza A/H5N1 virus [4]): 85%
inhibition at 10 µg/mL (influenza A/H1N1 virus): 55.1%
inhibition at 100 µg/mL (influenza A/H1N1 virus): 74.4%
inhibition at 1000 µg/mL (influenza A/H1N1 virus): 84.6%
EC50 (HSV-2 [5]): 71.8 µg/mL (≈ 0.394 mM)
main stage of antiviral action: viral replication (in words) (influenza A/H5N1 virus [6]): interference with the viral replication compartment
inhibition at 10 µg/mL (influenza A/H5N1 virus [6]; [14]): 83.3%
inhibition at 100 µg/mL (influenza A/H5N1 virus [6]; [14]): 97.5%
inhibition at 1000 µg/mL (influenza A/H5N1 virus [6]; [14]): 96.7%
Selectivity index (SI) [2]: > 2.17*10^5
IC50 ([2]; 72 h): 0.033 µg/mL
IC50 ([2]; read-out: PIC50 H1N1): 18.2 nM
EC50 (HSV-1): 4.90 µg/mL (≈ 0.0269 mM)
inhibition at 10 µg/mL (influenza A/H5N1 virus [7]; [15]): 43.4%
inhibition at 100 µg/mL (influenza A/H5N1 virus [7]; [15]): 48.7%
inhibition at 1000 µg/mL (influenza A/H5N1 virus [7]; [15]): 61.4%
CC50 (in vitro): 7180 µg/mL (≈ 39.4 mM)

O=C1C[C@@H]2OCC=C3CN4CC[C@]56c7ccccc7N1[C@H]5[C@H]2[C@H]3C[C@H]46 [Strychnine Sulfate, Strychnine sulfate]
inhibition at 1 µg/mL (influenza A/H5N1 virus [3]; [12]): 29.4%
inhibition at 10 µg/mL (influenza A/H5N1 virus [3]; [12]): 37%
inhibition at 100 µg/mL (influenza A/H5N1 virus [3]; [12]): 49.2%
IC50 [1]: 11.851 µg/mL
Selectivity index (SI) [1]: > 843
IC50 [1, 11]: 11.8 µg/mL
inhibition at 1 µg/mL (influenza A/H5N1 virus [4]): 74.4%
inhibition at 10 µg/mL (influenza A/H5N1 virus [4]): 84%
inhibition at 100 µg/mL (influenza A/H5N1 virus [4]): 96.3%
inhibition at 1 µg/mL (influenza A/H1N1 virus): 65.5%
inhibition at 10 µg/mL (influenza A/H1N1 virus): 71.6%
inhibition at 100 µg/mL (influenza A/H1N1 virus): 87.4%
inhibition at 1 µg/mL (influenza A/H5N1 virus [6]; [14]): 19.4%
inhibition at 10 µg/mL (influenza A/H5N1 virus [6]; [14]): 27.3%
inhibition at 100 µg/mL (influenza A/H5N1 virus [6]; [14]): 42%
Selectivity index (SI) [2]: > 1.67*10^5
IC50 ([2]; 72 h): 0.06 µg/mL
main stage of antiviral action: viral adsorption (in words) (influenza A/H5N1 virus [7]): hindering IAV adsorption to the host cell (MDCK) receptors
inhibition at 1 µg/mL (influenza A/H5N1 virus [7]; [15]): 90.1%
inhibition at 10 µg/mL (influenza A/H5N1 virus [7]; [15]): 99.5%
inhibition at 100 µg/mL (influenza A/H5N1 virus [7]; [15]): 99%
CC50 (in vitro): > 10000 µg/mL

c1ccc2c(c1)[nH]c1cnccc12 [Norharmane]
anti-influenza activity against avian influenza A/H5N1 virus (in words) [1]: poor or no antiviral potential activity; also recorded: no effect
IC50 [1, 11]: > 10000 µg/mL
CC50 (in vitro): > 10000 µg/mL

CNC(=O)Oc1ccc2c(c1)[C@]1(C)CCN(C)[C@@H]1N2C [Eserine]
anti-influenza activity against avian influenza A/H5N1 virus (in words) [1]: poor or no antiviral potential activity
IC50 [1, 11]: > 10000 µg/mL
anti-influenza activity against human influenza A/H1N1 virus (in words) [2]: no antiviral activity
CC50 (in vitro): > 10000 µg/mL

COc1ccc2c(c1)[nH]c1c(C)nccc12 [Harmine]
EC50 (HSV-2 [8]): 1470 nM
anti-influenza activity against avian influenza A/H5N1 virus (in words) [1]: poor or no antiviral potential activity; also recorded: no effect; also recorded: no anti-influenza activity
IC50 [1, 11]: > 10000 µg/mL
CC50 (in vitro): > 10000 µg/mL

CC[C@@H](CO)NC(=O)[C@@H]1C=C2c3cccc4[nH]cc(c34)C[C@H]2N(C)C1 [Methyl ergometrine]
anti-influenza activity against avian influenza A/H5N1 virus (in words) [1]: poor or no antiviral potential activity
IC50 [1, 11]: > 1000 µg/mL
CC50 (in vitro): 8230 µg/mL (≈ 24.2 mM)

CC1=NCCc2c1[nH]c1cc(O)ccc21 [Harmalol]
inhibition at 0.1 µg/mL (influenza A/H5N1 virus [3]; [12]): 41.5%
inhibition at 1 µg/mL (influenza A/H5N1 virus [3]; [12]): 50.9%
inhibition at 10 µg/mL (influenza A/H5N1 virus [3]; [12]): 58%
Selectivity index (SI) [1]: > 5*10^5
IC50 [1, 11]: 0.02 µg/mL
IC50 [1, 13]: 21 nM
inhibition at 0.1 µg/mL (influenza A/H5N1 virus [4]): 54.7%
inhibition at 1 µg/mL (influenza A/H5N1 virus [4]): 73.3%
inhibition at 10 µg/mL (influenza A/H5N1 virus [4]): 86.4%
inhibition at 0.1 µg/mL (influenza A/H1N1 virus): 74.3%
inhibition at 1 µg/mL (influenza A/H1N1 virus): 79.6%
inhibition at 10 µg/mL (influenza A/H1N1 virus): 91.8%
main stage of antiviral action: viral replication (in words) (influenza A/H5N1 virus [6]): interference with the viral replication compartment
inhibition at 0.1 µg/mL (influenza A/H5N1 virus [6]; [14]): 87.5%
inhibition at 1 µg/mL (influenza A/H5N1 virus [6]; [14]): 96.9%
inhibition at 10 µg/mL (influenza A/H5N1 virus [6]; [14]): 98.7%
Selectivity index (SI) [2]: > 2.8*10^5
IC50 ([2]; 72 h): 0.035 µg/mL
IC50 ([2]; read-out: PIC50 H1N1): 20 nM
inhibition at 0.1 µg/mL (influenza A/H5N1 virus [7]; [15]): 60.3%
inhibition at 1 µg/mL (influenza A/H5N1 virus [7]; [15]): 74.5%
inhibition at 10 µg/mL (influenza A/H5N1 virus [7]; [15]): 82.1%
CC50 (in vitro): > 10000 µg/mL

COc1ccc2c3c([nH]c2c1)C(C)=NCC3 [Harmaline]
main stage of antiviral action: viricidal (in words) (influenza A/H5N1 virus [3]): direct cell-free viricidal effect
inhibition at 1 µg/mL (influenza A/H5N1 virus [3]; [12]): 91%
inhibition at 10 µg/mL (influenza A/H5N1 virus [3]; [12]): 96.7%
inhibition at 100 µg/mL (influenza A/H5N1 virus [3]; [12]): 98.6%
Selectivity index (SI) [1]: 138
IC50 [1, 11]: 3.42 µg/mL
IC50 [1, 13]: 28100 nM
inhibition at 1 µg/mL (influenza A/H5N1 virus [4]): 72.6%
inhibition at 10 µg/mL (influenza A/H5N1 virus [4]): 87.7%
inhibition at 100 µg/mL (influenza A/H5N1 virus [4]): 94.2%
inhibition at 1 µg/mL (influenza A/H1N1 virus): 66.7%
inhibition at 10 µg/mL (influenza A/H1N1 virus): 77.8%
inhibition at 100 µg/mL (influenza A/H1N1 virus): 86.5%
inhibition at 1 µg/mL (influenza A/H5N1 virus [6]; [14]): 28.3%
inhibition at 10 µg/mL (influenza A/H5N1 virus [6]; [14]): 40.3%
inhibition at 100 µg/mL (influenza A/H5N1 virus [6]; [14]): 48.7%
Selectivity index (SI) [2]: 8482
IC50 ([2]; 72 h): 0.056 µg/mL
IC50 ([2]; read-out: PIC50 H1N1): 20 nM
inhibition at 1 µg/mL (influenza A/H5N1 virus [7]; [15]): 34%
inhibition at 10 µg/mL (influenza A/H5N1 virus [7]; [15]): 46.2%
inhibition at 100 µg/mL (influenza A/H5N1 virus [7]; [15]): 51.8%
CC50 (in vitro): 475 µg/mL (≈ 2.22 mM)

NC12CC3CC(CC(C3)C1)C2 [Amantadine HCl, reference compound]
Selectivity index (SI) [1]: 62.71
IC50 [1, 11]: 17.6 µg/mL
CC50 (MDCK cells): 1103 µg/mL
Selectivity index (SI) [2]: 74.32
IC50 ([2]; 72 h): 14.9 µg/mL
CC50 (in vitro): 1100 µg/mL

COc1cc2c(cc1OC)[C@@]13CCN4CC5=CCO[C@H]6CC(=O)N2[C@H]1[C@H]6[C@H]5C[C@H]43 [Brucine]
anti-influenza activity against avian influenza A/H5N1 virus (in words) [1]: poor or no antiviral potential activity
IC50 [1, 11]: > 10000 µg/mL
CC50 (in vitro): > 10000 µg/mL

COc1ccc2c3ccnc(C)c3n(C)c2c1 [9 N methylharmine]
EC50 (DENV-2 (dengue virus-2)): 3200 ± 600 nM

COC(=O)[C@H]1[C@H]2C[C@@H]3c4[nH]c5cc(OC)ccc5c4CCN3C[C@H]2C[C@@H](OC(=O)c2cc(OC)c(OC)c(OC)c2)[C@@H]1OC [Reserpine]
Selectivity index (SI) [1]: > 33
anti-influenza activity against avian influenza A/H5N1 virus (in words) [1]: moderate anti-influenza activity
IC50 [1, 11]: 42.4 µg/mL
anti-influenza activity against human influenza A/H1N1 virus (in words) [2]: moderate anti-influenza potential
EC50 [9]: 3400 nM
CC50 (in vitro): 1400 µg/mL (≈ 2.3 mM)

O=C1C[C@@H]2OCC=C3CN4CC[C@]56c7ccccc7N1[C@H]5[C@H]2[C@H]3C[C@H]46 [strychnine]
high dose causing muscle contraction and convulsions that can lead to respiratory paralysis [10]: 1.5 mg/kg
